US5239083A, “Indole derivatives which inhibit steroid 5α reductase” (Kyowa Hakko Kogyo Co., Ltd., priority 1991, dated 1993)

Assays:
male dd mice = test: Acute Toxicity Test (oral, mice); format: in vivo; settings: oral 300 mg/kg, mortality observed seven days after administration
Experimental: Test compounds (300 mg/kg) were orally administered to male dd mice weighing 20±1 g (each group consists of three animals). Minimum lethal dose (MLD) was determined by observing mortality seven days after the administration.

steroid 5α-reductase = test: Inhibition effects on steroid 5α-reductase activity (rat prostate enzyme, [4-14C]-testosterone); format: biochemical, male rats; settings: pH 6.5, 37° C., 20 minutes
Experimental: The measurements of inhibition effects of test compounds on steroid 5α-reductase activity were performed according to the method described by Liang et al. [J. Biol. Chem., 259, 734 (1984)] as follows.
The prostates from male rats were homogenated in three tissue volumes of 20 mM sodium phosphate buffer (pH 6.5; containing 0.32M sucrose and 1 mM dithiothreitol). The homogenate was centrifuged at 140,000 X g for one hour. The precipitate was suspended in the buffer described above and the suspension was centrifuged at 140,000 X g for one hour. The precipitate was resuspended in the buffer described above and the solution (30-50 mg protein/ml) was used as enzyme in following assay.
[4-^14 C]-testosterone (1.5 nmol), NADPH (75 nmol), the enzyme (1 mg protein) and test compound in a total volume of 0.5 ml of 40 mM sodium phosphate buffer [pH 6.5, containing 1 mM dithiothreitol] was incubated at 37° C. After 20 minutes the enzyme activity was stopped by the addition of 2 ml of ethyl acetate. The mixture was then centrifuged at 1,000 g, for 5 minutes. The ethyl acetate layer was transferred to another tube and evaporated to dryness. The steroids were taken up in 50 μl of ethyl acetate and separated by thin layer chromatography (TLC) on silica gel in a developing solvent (ethyl acetate: cyclohexane=1:1). The radioactivity of testosterone and dihydrotestosterone on the TLC plate was measured by a TLC scanner.

For `CCCCC(c1ccccc1)n1ccc2cc(/C(C)=C/C(=O)Nc3ccccc3OCCCC(=O)O)ccc21` (stereo not drawn) [Compound 42, 4-{2-[3-[1-(α-butylbenzyl)indol-5-yl]isocrotonoylamino]phenoxy}butyric acid], the “Acute toxicity (MLD), minimum lethal dose” value (from here on “Acute toxicity (MLD)”) (male dd mice) was > 300 mg/kg and the “inhibition rate (%), 10^-7 M” value (steroid 5α-reductase) was 89%.

With `CCCCCC(c1ccccc1)n1ccc2cc(/C(C)=C/C(=O)Nc3ccccc3OCCCC(=O)O)ccc21` (stereo not drawn) [Compound 43, 4-{2-[3-[1-(α-pentylbenzyl)indol-5-yl]isocrotonoylamino]phenoxy}butyric acid] the “Acute toxicity (MLD)” value (male dd mice) was > 300 mg/kg and the “inhibition rate (%), 10^-7 M” value (steroid 5α-reductase) was 74%.

`C/C(=C\C(=O)Nc1ccccc1OCCCC(=O)O)c1ccc2c(ccn2C(c2ccccc2)C(C)C)c1` (stereo not drawn) [Compound 44, 4-{2-[3-[1-[α-(2-methylethyl)benzyl]indol-5-yl]isocrotonoylamino]phenoxy}butyric acid] was tested, and the “Acute toxicity (MLD)” value (male dd mice) was > 300 mg/kg and the “inhibition rate (%), 10^-7 M” value (steroid 5α-reductase) was 78%.

In the case of `C/C(=C\C(=O)Nc1ccccc1OCCCC(=O)O)c1ccc2c(ccn2C2CCCc3ccccc32)c1` (centres unmarked) [Compound 45, 4-{2-[3-[1-(1,2,3,4-tetrahydro-1-naphthyl)indol-5-yl]isocrtonoylamino]phenoxy}butyric acid], the “Acute toxicity (MLD)” value (male dd mice) is reported as > 300 mg/kg and the “inhibition rate (%), 10^-7 M” value (steroid 5α-reductase) is reported as 77%.

In the case of `C/C(=C\C(=O)Nc1ccccc1OCCCC(=O)O)c1ccc2c(ccn2C(c2ccccc2)c2ccccc2C)c1` (centres unmarked) [Compound 52], the “Acute toxicity (MLD)” value (male dd mice) is reported as > 300 mg/kg and the “inhibition rate (%), 10^-7 M” value (steroid 5α-reductase) is reported as 90%.

`C/C(=C\C(=O)Nc1ccccc1OCCCC(=O)O)c1ccc2c(ccn2C(c2ccccc2)c2ccc(C)cc2)c1` (centres unmarked) [Compound 53] was tested, and the “Acute toxicity (MLD)” value (male dd mice) was > 300 mg/kg and the “inhibition rate (%), 10^-7 M” value (steroid 5α-reductase) was 84%.

With `C/C(=C\C(=O)Nc1ccccc1OCCCC(=O)O)c1ccc2c(ccn2C(c2ccc(C)cc2)c2ccc(C)cc2)c1` [Compound 54, 4-{2-[3-[1-(4,4'-dimethylbenzhydryl)indol-5-yl]isocrotonoylamino]phenoxy}butyric acid] the “Acute toxicity (MLD)” value (male dd mice) was > 300 mg/kg and the “inhibition rate (%), 10^-7 M” value (steroid 5α-reductase) was 89%.
